Non-standard residues stand in square brackets, D forms with d. Primed or numbered codes have the meaning given here. No end group written: not given here. PEG6′ = PEG6 spacer
What was measured:
[1] = molecular target: T1, TrkB receptor (Mus musculus, UniProt P15209); test: TrkB receptor phosphorylation (p-TrkB) by western blot in primary cortical neurons; type: cell-based; details: for TrkB phosphorylation: 4 and 6 h timepoints, 0.5 μM
T1 construct: Protein was extracted from primary neuronal cultures; endogenous in cells; host or cells: primary cortical neurons from E16 CD1 mouse embryos, 14 DIV
Protocol: 2.3.2. Dissection of Embryonic Primary Cortical Neurons. Neurons were obtained from embryonic brains as described elsewhere.^2 Briefly, time-pregnant mouse was sacrificed by cervical dislocation and the embryos were extracted at embryonic day 16 (E16). Cerebral cortices were dissected from the mouse embryos and meninges were removed in a solution of Hank's Balanced Salt Solution (HBSS) with 1% pen-strep (Invitrogen) and then digested with trypsin (Invitrogen) and DNAse (Sigma-Aldrich) for 10 min at 37° C. The tissue was mechanically dissociated, centrifuged at 1000 g for 5 min, and resuspended in CO2-equilibrated Neurobasal (NB) neuronal culture medium (Invitrogen) supplemented with 10% normal horse serum (NHS) (Invitrogen), 1% pen-strep (Invitrogen), 0.5 mM L-glutamine (Invitrogen), and 5.8 μL NaHCO3/mL (Sigma-Aldrich). The cell suspension was pre-plated at 37° C. for 30 min. Afterwards, the supernatant was collected, passed through a cell strainer with 100 μm pore size and centrifuged at 1000 g for 5 min. The pellet was resuspended in NB neuronal culture medium (1% NHS, 1% pen-strep, 0.5 mM L-glutamine, 22 μM glutamic acid (Sigma-Aldrich), 2% B27 (Gibco), and 5.8 μL NaHCO3/mL (Sigma-Aldrich), and plated at different densities (depending on the type of experiment, see below) directly on tissue culture plates coated with poly-D-lysine (Sigma-Aldrich). After 24 hs, the medium was replaced with serum-free neuronal culture medium (1% pen-strep, 0.5 mM L-glutamine, 2% B27, 5.8 μL NaHCO3/mL). Under these conditions, we obtained a neuron-enriched culture with a composition of approximately 10% glial cells.
BDNF PA Treatments and Cell Culture Procedures. Treatments were prepared by dissolving PA (including E2 Filler, E2 Filler+E4PEG, E2 Filler+Linear BDNF, E2 Filler+BDNF PAs) and BDNF peptide at different concentrations (0.5, 1.0 or 5.0 μM), in media without serum or B27 supplement or starvation media. Unless otherwise noted, BDNF PA, Linear BDNF PA, or E4PEG PAs were co-assembled at 10 mol % with E2 filler PA (total concentration of PA was 5.0, 10.0, or 50.0 μM respectively). For the co-assembly ratio study, BDNF PA was co-assembled at 10, 20, 50, 70, 90, and 100 mol %. Human/Murine/Rat BDNF protein (Peprotech) was resuspended at different concentrations (0.25, 0.5 and 1 nM) in starvation media.
For western blot, cells were cultured in 6 well plates at a density of approximately 900,000 cells/well for 14 DIV before being treated. Treatments were added for 2, 4, 6, 8, 12 or 24 h in vitro before protein was harvested. […] Protein was extracted after six hours of treatment.
Western Blot. Protein was extracted from primary neuronal cultures with Halt Protease and Phosphatase Inhibitor Cocktail (Thermo Scientific) and a BCA assay (Thermo Scientific) was performed to determine protein content of each sample. Cell protein was loaded into and separated using a 4-20% SDS-PAGE gel (Bio-Rad). It was then electrotransferred from the gel to a nitrocellulose membrane (Bio-Rad). The membranes were blocked with 5% milk solution (Bio-Rad) for 30 minutes followed by an overnight incubation with primary antibodies at 4° C. The following primary antibodies were used: rabbit anti-pTrkB (1:1000, Cell Signaling), rabbit anti-TrkB (1:1000, Cell Signaling), rabbit anti-Actin (1:2000, Sigma Aldrich), mouse anti-Actin (1:2000, Sigma Aldrich), rabbit anti-pPLCγ (1:1000, Cell Signaling), rabbit anti-PLCγ (1:1000, Cell Signaling), rabbit anti-pAKT (1:2000, Cell Signaling), mouse anti-AKT (1:2000, Cell Signaling), rabbit anti-pERK1+ERK2 (1:1000, Abcam), rabbit anti-ERK 1/2 (1:1000, Cell Signaling), rabbit anti-PSD95 (1:1000, Abcam), rabbit anti-MAP-2 (1:2000, BioLegend), and mouse anti-Tuj-1 (1:1000, BioLegend). Membranes were then incubated with their corresponding secondary HRP-conjugated antibodies (1:1000; ThermoFisher). Protein signals were detected using Radiance Bioluminescent ECL substrate (Azure Biosystems). […]

[2] = tested on: cortical neurons; test: Infiltration and maturation of cortical neurons on 3D PA gel scaffolds; type: cell-based, mouse; details: neurons on gels, one week
Protocol: Gels were made using annealed PAs prepared with methods described herein 1. BDNF native protein or BDNF peptide were incorporated by mixing at 10 nM or 0.5 uM respectively, with E2 Filler PA gel at 1 wt % while it was in its liquid state. Silicon isolators with adhesive (Invitrogen) were placed on PDL coated glass coverslips. 70 μL of PA liquid was pipetted into the circular silicon well and a Transwell insert was placed flush with the top of the well of the silicon insert. This step ensured a flat, even thickness for all gels. Gelling solution comprised of 125 mM NaCl, 3 mM KCl, and 25 mM CaCl2 was pipetted into the Transwell insert and allowed to slowly soak down into the material from the top. The insert prevented the gel from swelling more than the thickness of the silicon isolator. All gels were incubated at 37° C. for 5 min before removing the Transwell insert.
Infiltration Study. Gels were prepared as described in 2.1.2. Gels were then rinsed with media one time before cells were seeded on top at a density of approximately 42,000 cells/well. Cells were cultured for one week in vitro. Half of the gels were analyzed by patch clamp analysis (see section 3.4.9. Other gels were fixed with 4% PFA to perform infiltration studies. Cell were stained for MAP2, TUJ-1 and DAPI using immunocytochemistry methods described previously. Confocal microscopy was used to make z-stack reconstructions of each gel. The MultiMeasure function in the ROI manager of ImageJ was used to measure the depth of pixels for each channel which was then plotted as intensity vs depth in the gel. The average intensity of MAP2 was measured by averaging the mean intensities obtained from maximum intensity projections of z-stacks images of gels.

[3] = tested on: mouse model of spinal cord injury; test: Mouse model of spinal cord injury, Basso Mouse Scale hind limb scoring; type: in vivo; details: 12 weeks after injury; BDNF PA co-assembled at 20 mol % with E2 PA gel, injected 24 h after injury
Excerpt: The spinal cord injury procedures used follow a standardized protocol to ensure a reproducible injury. Mice were anesthetized and their back is opened to reveal the vertebral column. The vertebral bone at T11 was surgically removed to reveal the spinal cord tissue. The mice were then transferred the impactor machine which is used to inflict a compression injury on the exposed spinal cord. The spinal cord was held in place using stereotactic clamps. The instrument inflicts a force of 70-80 kDynes and dwells in the place of the impact for 60 seconds to simulate a crush injury accident. This injury is quite severe. After each impact was performed, the instrument supplies a graph corresponding to the real force and trajectory of the impactor. This graph is used to compare and ensure that all animals receive an injury of the same nature. After the injury is inflicted, the animals were closed and allowed to rest for 24 hours.
The next day, the animals were re-opened and prepared for the “treatment” surgery. Before beginning the procedure, all animals underwent a behavioral assessment and mice with hind limb movement were discarded from the study. When the animal is re-opened, there was typically a dark, bruised area apparent where the crush injury took place the previous day. This is where the treatment was injected. A Hamilton syringe attached to a glass-pulled needle with a diameter of ˜300 μm was used to puncture the bruised dermis of the tissue and the treatment was injected into the underlying tissue cavity. Treatment types include; saline, and the C16V2A2E2 (E2) non-bioactive PA gel as negative controls, as well as the BDNF PA co-assembled at 20 mol % with the E2 non-bioactive PA gel.
After injection, the animals were closed and returned to cages to recover. Over the next 12 weeks, blinded hind limb behavioral scoring was performed to assess any functional changes (FIG. 21). A standardized “Basso Mouse Scale” was used (Basso et al. J Neurotrauma. 2006 May; 23(5):635-59.; herein incorporated by reference in its entirety). Two blinded researchers were either side of a runway where the mouse was guided to move in a straight line. As the mouse walks, each researcher grades the limb movement. Any discrepancies in evaluation were re-evaluated by a third researcher. The score for the two limbs was averaged and marked as the score for that animal.

T1 sequence (P15209 32-821): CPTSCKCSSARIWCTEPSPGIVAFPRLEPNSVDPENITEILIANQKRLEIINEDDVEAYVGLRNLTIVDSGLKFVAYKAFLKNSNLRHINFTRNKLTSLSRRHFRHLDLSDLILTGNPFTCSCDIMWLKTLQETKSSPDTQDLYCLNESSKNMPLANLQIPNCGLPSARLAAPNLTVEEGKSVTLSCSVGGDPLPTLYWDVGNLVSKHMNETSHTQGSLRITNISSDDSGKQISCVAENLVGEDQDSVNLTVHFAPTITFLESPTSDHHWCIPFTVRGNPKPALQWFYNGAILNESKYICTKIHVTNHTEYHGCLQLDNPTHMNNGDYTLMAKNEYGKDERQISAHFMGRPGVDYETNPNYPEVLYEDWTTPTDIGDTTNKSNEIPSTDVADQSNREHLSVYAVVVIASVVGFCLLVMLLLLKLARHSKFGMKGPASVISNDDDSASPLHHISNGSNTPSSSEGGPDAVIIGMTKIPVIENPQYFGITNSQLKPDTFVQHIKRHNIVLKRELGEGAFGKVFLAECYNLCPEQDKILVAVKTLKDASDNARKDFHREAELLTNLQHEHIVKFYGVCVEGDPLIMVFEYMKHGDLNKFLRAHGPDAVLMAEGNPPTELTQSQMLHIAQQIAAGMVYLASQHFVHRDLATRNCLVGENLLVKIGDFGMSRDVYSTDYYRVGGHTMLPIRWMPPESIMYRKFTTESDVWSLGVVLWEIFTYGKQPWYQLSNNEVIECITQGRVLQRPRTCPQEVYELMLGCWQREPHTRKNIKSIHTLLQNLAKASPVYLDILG

| Molecule | TrkB phosphorylation after pre-treatment with inhibitor K252a ([1]; K252a 2 h prior to treatment, 6 h post-treatment) | TrkB phosphorylation [1] | distance that neurites infiltrated from the top of the scaffold [2] | normalized average of MAP2 intensity [2] | final average limb behavioral score (Basso Mouse Scale) [3] |
| --- | --- | --- | --- | --- | --- |
| COC(=O)[C@@]1(O)C[C@H]2O[C@]1(C)n1c3ccccc3c3c4c(c5c6ccccc6n2c5c31)C(=O)NC4 [K252a, reference compound] | completely blocked | – | – | – | – |
| C16V2A2E2 (EEAAVV) [E2 Filler PA] | – | none of these control conditions were able to induce TrkB phosphorylation | 36.9±9.9 μm | 0.32±0.06 | 2.4 |
| Linear BDNF PA: non-cyclized BDNF PA synthesized as a control (chain 1 RKK[aK][dP][PEG6′]EEEEAAVV; chain 2 EEAAVV; not fully specified (C-terminus)) | – | lack of TrkB phosphorylation | – | – | – |
